The structures appear in SMILES notation. Some results are limits rather than exact numbers.

The text below walks through data of patent publication US12116343B2, “Inhibitors of APOL1 and methods of using same” (Vertex Pharmaceuticals Incorporated, priority 2020, dated 2024).

In this experiment the target is T1, G1 APOL1 (Homo sapiens, UniProt O14791, I384M/S342G).
T1 construct: expressed in transfected cells
T1 sequence (O14791 28-398 S342G/I384M): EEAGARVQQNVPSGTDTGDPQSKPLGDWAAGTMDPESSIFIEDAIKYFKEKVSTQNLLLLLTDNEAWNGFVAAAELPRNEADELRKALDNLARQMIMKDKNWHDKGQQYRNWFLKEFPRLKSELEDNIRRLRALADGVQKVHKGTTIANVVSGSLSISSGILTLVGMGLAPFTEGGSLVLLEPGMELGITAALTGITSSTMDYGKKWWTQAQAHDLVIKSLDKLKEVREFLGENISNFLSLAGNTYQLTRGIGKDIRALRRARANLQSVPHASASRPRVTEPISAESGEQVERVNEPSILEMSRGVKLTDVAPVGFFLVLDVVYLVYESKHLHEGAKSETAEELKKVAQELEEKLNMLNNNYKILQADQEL
Put plainly: Acute APOL1 Thallium Assay with inducible stable clones of HEK 293 cells. Format: cell-based. The settings on record: HEK 293 T-Rex cells expressing G1 APOL1; read-out: Thallium Assay (IC50). In outline:
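Tetracycline-inducible HEK293 T-Rex clone G1 DC3.25 expressing G1 APOL1, plated at 26000 cells/well in Opti-MEM with tetracycline induction. APOL1 pore activity read on FLIPR as fluorescence increase from Tl+ influx into cells loaded with a Tl+-sensitive AM-ester dye.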
In general, IC50 refers to the concentration that inhibits the measured activity by half. `CC(CO)NC(=O)[C@H]1C[C@H](c2c(-c3ccc(F)cc3)[nH]c3c(F)cc(F)cc32)C1` (mixture of isomers) [Compound 13]: the IC50 was less than 250 nM.
Take `CC(CO)N(C)C(=O)[C@H]1C[C@H](c2c(-c3ccc(F)cc3)[nH]c3c(F)cc(F)cc32)C1` (mixture of isomers) [Compound 193]: the 50% inhibitory concentration (IC50) fell in the range of 250 to 1000 nM.
As for `CC1(NC(=O)[C@H]2C[C@H](c3c(-c4ccc(F)cc4)[nH]c4c(F)cc(F)cc43)C2)CCNC1=O` (mixture of isomers) [Compound 197], the figure is 250 to 1000 nM; as for `CC(O)(CO)CNC(=O)[C@H]1C[C@H](c2c(-c3ccc(F)cc3)[nH]c3c(F)cc(F)cc32)C1` (mixture of isomers) [Compound 216], more than 1000 nM.
The result for `CC1(CO)CCN1C(=O)[C@H]1C[C@H](c2c(-c3ccc(F)cc3)[nH]c3c(F)cc(F)cc32)C1` (mixture of isomers) [Compound 218] reads 250 to 1000 nM.
Regarding `COCCNC(=O)[C@H]1C[C@H](c2c(-c3ccc(F)cc3)[nH]c3c(F)cc(F)cc32)C1` [Compound 12], the IC50 is more than 1000 nM.
The result for `O=C(NCC(O)CO)[C@H]1C[C@H](c2c(-c3ccc(F)cc3)[nH]c3c(F)cc(F)cc32)C1` (stereo partly drawn) [Compound 14] reads 250 to 1000 nM; that for `O=C(NC1CCOC1)[C@H]1C[C@H](c2c(-c3ccc(F)cc3)[nH]c3c(F)cc(F)cc32)C1` (stereo partly drawn) [Compound 15], more than 1000 nM; that for `C[C@H](O)[C@@H](CO)NC(=O)[C@H]1C[C@H](c2c(-c3ccc(F)cc3)[nH]c3c(F)cc(F)cc32)C1` [Compound 16], less than 250 nM.
As for `Cc1cc(NC(=O)[C@H]2C[C@H](c3c(-c4ccc(F)cc4)[nH]c4c(F)cc(F)cc43)C2)no1` [Compound 17], the figure is 250 to 1000 nM; as for `COC1CC1NC(=O)[C@H]1C[C@H](c2c(-c3ccc(F)cc3)[nH]c3c(F)cc(F)cc32)C1` (stereo partly drawn) [Compound 18], more than 1000 nM; as for `O=C(N[C@@H]1CCOC1)[C@H]1C[C@H](c2c(-c3ccc(F)cc3)[nH]c3c(F)cc(F)cc32)C1` [Compound 19], 250 to 1000 nM.
Regarding `O=C(N[C@H]1C[C@H](O)C1)[C@H]1C[C@H](c2c(-c3ccc(F)cc3)[nH]c3c(F)cc(F)cc32)C1` [Compound 20], the IC50 was more than 1000 nM.
The result for `Cn1ccc(NC(=O)[C@H]2C[C@H](c3c(-c4ccc(F)cc4)[nH]c4c(F)cc(F)cc43)C2)n1` [Compound 22] reads more than 1000 nM; that for `O=C1NCCCC1NC(=O)[C@H]1C[C@H](c2c(-c3ccc(F)cc3)[nH]c3c(F)cc(F)cc32)C1` (stereo partly drawn) [Compound 23], 250 to 1000 nM; that for `Cc1cnc(NC(=O)[C@H]2C[C@H](c3c(-c4ccc(F)cc4)[nH]c4c(F)cc(F)cc43)C2)o1` [Compound 24], more than 1000 nM.
As for `O=C1CCC(NC(=O)[C@H]2C[C@H](c3c(-c4ccc(F)cc4)[nH]c4c(F)cc(F)cc43)C2)C(=O)N1` (stereo partly drawn) [Compound 26], the figure is 250 to 1000 nM.
As for `C[C@@H](NC(=O)[C@H]1C[C@H](c2c(-c3ccc(F)cc3)[nH]c3c(F)cc(F)cc32)C1)C(N)=O` [Compound 28], the figure is 250 to 1000 nM.
Turning to `CC(C)C(CO)NC(=O)[C@H]1C[C@H](c2c(-c3ccc(F)cc3)[nH]c3c(F)cc(F)cc32)C1` (stereo partly drawn) [Compound 29], the IC50 was more than 1000 nM.
On to `CC(C)CC(NC(=O)[C@H]1C[C@H](c2c(-c3ccc(F)cc3)[nH]c3c(F)cc(F)cc32)C1)C(N)=O` (stereo partly drawn) [Compound 30], for which the IC50 was more than 1000 nM.
The result for `CC(C)(CO)NC(=O)[C@H]1C[C@H](c2c(-c3ccc(F)cc3)[nH]c3c(F)cc(F)cc32)C1` [Compound 31] reads less than 250 nM; that for `NC(=O)C(CO)NC(=O)[C@H]1C[C@H](c2c(-c3ccc(F)cc3)[nH]c3c(F)cc(F)cc32)C1` (stereo partly drawn) [Compound 32], less than 250 nM.
The result for `O=C(NCC(F)(F)F)[C@H]1C[C@H](c2c(-c3ccc(F)cc3)[nH]c3c(F)cc(F)cc32)C1` [Compound 33] reads 250 to 1000 nM.
The result for `O=C(NCCn1cccc1)[C@H]1C[C@H](c2c(-c3ccc(F)cc3)[nH]c3c(F)cc(F)cc32)C1` [Compound 34] reads more than 1000 nM.
